Measurements: publication PMC8222254, “Self-assembly of an anion receptor with metal-dependent kinase inhibition and potent in vitro anti-cancer properties” (Nature Communications, 2021)
Values joined by “and” are separate entries in the source; they are usually repeats but may differ in a detail not shown here. Equal values may be shown once.

Tests used:
Assay in all cases: Kinase inhibition screen, cell-free 33P ATP assay at 10 μM
Format in all cases: biochemical
[1] = biological target: 140 purified human kinases (Homo sapiens, UniProt P14616); conditions: IRR
Summary of the method: (§1)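 Each complex tested in duplicate at 10 μM; cell-free radiometric assay using ^33P ATP on purified enzymes. Hits mapped by HGNC symbol onto the kinome tree.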

[2] = biological target: 140 purified human kinases (Homo sapiens, UniProt P00519); conditions: ABL
Chain of 140 purified human kinases (Homo sapiens, UniProt P00519) (P00519 whole entry): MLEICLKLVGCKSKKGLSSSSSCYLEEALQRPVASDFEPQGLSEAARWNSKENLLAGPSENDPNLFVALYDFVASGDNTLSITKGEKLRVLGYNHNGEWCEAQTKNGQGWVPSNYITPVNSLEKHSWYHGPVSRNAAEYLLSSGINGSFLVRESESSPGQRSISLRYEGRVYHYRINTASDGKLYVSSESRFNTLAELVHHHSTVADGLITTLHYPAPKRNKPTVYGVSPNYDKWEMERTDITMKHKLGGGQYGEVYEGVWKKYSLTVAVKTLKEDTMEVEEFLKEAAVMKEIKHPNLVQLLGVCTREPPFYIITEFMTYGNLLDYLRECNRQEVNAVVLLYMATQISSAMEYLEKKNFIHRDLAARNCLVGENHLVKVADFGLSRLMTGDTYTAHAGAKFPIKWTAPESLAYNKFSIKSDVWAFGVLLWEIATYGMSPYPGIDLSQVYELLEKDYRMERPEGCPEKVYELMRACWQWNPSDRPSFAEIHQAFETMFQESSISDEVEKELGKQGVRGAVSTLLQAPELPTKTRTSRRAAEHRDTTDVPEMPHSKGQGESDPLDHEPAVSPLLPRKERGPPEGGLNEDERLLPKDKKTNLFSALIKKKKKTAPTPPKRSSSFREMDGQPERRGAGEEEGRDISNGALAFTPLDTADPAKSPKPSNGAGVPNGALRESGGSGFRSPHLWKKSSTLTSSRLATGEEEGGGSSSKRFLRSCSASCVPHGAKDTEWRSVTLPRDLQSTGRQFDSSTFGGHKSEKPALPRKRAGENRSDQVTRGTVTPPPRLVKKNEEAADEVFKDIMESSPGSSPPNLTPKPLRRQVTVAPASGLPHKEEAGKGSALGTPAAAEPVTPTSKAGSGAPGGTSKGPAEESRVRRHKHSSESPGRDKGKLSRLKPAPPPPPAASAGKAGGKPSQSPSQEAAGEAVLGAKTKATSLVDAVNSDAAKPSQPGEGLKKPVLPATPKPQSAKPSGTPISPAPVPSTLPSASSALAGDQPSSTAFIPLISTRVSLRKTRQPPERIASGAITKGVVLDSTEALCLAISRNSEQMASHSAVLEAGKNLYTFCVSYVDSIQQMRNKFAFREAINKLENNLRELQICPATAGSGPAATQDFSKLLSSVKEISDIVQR
Summary of the method: as §1

[3] = biological target: T1, 140 purified human kinases (Homo sapiens, UniProt O43318)
T1 sequence (O43318 1-606): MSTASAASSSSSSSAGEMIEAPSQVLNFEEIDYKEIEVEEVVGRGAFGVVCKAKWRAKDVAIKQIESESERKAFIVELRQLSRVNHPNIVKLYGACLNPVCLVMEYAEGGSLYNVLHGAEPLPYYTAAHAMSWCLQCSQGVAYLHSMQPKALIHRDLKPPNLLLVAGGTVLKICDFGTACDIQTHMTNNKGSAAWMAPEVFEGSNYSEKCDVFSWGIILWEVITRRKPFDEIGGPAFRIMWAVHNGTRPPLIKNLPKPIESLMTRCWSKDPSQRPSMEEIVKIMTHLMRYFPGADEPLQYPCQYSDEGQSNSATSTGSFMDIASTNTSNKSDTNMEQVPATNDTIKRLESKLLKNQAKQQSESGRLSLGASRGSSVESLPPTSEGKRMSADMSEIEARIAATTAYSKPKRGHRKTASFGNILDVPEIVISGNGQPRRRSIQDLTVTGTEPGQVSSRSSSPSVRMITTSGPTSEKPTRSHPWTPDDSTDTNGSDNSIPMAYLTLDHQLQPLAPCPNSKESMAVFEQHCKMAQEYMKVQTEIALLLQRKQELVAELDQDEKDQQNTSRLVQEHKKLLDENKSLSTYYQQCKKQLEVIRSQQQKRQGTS
Summary of the method: as §1

[4] = biological target: 140 purified human kinases (Homo sapiens, UniProt Q9H4A3)
Chain of 140 purified human kinases (Homo sapiens, UniProt Q9H4A3) (Q9H4A3 whole entry): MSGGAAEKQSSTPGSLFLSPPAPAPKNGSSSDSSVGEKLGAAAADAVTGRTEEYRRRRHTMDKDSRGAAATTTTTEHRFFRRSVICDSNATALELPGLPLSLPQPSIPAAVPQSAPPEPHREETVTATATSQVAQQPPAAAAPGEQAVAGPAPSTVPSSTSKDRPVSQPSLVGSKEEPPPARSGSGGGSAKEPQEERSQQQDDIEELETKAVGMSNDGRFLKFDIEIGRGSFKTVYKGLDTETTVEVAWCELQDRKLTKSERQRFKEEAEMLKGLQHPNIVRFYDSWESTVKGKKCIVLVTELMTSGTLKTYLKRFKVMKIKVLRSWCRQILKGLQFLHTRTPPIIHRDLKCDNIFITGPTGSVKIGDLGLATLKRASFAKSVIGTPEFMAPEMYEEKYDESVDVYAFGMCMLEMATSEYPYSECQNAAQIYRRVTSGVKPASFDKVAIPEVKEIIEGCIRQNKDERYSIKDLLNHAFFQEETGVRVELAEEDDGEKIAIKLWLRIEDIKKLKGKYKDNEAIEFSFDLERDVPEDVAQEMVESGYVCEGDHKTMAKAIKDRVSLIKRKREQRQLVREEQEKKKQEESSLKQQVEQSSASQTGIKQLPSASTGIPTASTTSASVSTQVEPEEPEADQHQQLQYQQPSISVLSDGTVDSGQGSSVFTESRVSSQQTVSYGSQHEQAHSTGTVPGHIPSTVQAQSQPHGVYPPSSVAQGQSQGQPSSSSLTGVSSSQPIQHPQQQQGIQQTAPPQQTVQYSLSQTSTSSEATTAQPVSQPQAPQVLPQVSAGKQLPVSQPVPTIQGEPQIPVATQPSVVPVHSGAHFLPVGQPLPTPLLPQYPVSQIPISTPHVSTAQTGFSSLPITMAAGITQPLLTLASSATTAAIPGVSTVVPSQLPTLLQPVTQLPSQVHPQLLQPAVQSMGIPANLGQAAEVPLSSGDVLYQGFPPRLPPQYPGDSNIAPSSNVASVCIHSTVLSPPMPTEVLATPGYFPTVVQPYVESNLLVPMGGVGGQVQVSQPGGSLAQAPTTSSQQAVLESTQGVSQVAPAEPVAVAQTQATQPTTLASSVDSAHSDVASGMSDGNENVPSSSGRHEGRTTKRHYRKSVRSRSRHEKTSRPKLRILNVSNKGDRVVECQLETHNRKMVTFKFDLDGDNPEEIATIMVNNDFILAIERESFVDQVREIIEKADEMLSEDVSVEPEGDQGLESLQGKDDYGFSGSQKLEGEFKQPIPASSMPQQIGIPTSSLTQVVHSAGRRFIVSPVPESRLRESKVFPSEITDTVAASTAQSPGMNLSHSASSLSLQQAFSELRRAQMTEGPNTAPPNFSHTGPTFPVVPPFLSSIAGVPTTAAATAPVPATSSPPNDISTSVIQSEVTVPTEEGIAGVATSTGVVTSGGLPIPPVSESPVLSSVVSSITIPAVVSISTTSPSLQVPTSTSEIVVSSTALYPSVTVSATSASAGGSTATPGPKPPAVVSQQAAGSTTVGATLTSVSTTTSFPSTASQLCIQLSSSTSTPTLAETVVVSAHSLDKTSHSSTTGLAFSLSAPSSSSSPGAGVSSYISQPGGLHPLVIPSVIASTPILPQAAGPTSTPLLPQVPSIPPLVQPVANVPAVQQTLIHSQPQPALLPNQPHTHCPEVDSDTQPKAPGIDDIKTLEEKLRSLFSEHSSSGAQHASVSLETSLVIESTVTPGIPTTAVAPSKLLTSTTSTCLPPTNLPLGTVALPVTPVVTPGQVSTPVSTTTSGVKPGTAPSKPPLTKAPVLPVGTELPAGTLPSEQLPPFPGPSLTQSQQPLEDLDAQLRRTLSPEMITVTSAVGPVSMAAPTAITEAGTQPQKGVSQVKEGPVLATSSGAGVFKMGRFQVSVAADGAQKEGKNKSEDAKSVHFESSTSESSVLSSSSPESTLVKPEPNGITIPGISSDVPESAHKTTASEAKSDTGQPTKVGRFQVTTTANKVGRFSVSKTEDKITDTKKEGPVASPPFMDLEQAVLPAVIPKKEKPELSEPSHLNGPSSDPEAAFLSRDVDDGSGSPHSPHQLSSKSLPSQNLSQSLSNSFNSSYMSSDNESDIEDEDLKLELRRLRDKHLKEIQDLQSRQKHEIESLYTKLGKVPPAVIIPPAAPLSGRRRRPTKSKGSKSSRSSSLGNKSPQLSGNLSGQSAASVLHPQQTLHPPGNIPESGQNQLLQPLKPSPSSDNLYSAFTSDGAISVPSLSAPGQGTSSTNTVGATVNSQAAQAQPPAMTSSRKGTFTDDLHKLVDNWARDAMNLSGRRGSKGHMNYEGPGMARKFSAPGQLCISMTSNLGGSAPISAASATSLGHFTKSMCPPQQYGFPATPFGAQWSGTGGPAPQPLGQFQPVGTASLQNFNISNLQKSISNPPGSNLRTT
Summary of the method: as §1

[5] = biological target: T2, 140 purified human kinases (Homo sapiens, UniProt Q9NWZ3)
T2 sequence (Q9NWZ3 1-460): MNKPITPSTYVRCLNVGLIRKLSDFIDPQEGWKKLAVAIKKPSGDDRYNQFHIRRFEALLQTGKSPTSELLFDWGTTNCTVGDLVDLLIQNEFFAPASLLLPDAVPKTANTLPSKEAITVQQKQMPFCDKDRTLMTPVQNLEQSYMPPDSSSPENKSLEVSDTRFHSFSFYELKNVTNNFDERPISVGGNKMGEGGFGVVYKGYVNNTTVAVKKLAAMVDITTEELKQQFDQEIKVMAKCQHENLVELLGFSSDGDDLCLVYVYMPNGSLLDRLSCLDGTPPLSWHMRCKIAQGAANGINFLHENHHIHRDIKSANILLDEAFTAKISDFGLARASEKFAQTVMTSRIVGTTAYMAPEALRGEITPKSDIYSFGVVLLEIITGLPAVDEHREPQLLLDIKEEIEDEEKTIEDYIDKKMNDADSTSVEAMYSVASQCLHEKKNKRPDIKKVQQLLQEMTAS
Summary of the method: as §1

[6] = biological target: 140 purified human kinases (Homo sapiens, UniProt Q13177)
Chain of 140 purified human kinases (Homo sapiens, UniProt Q13177) (Q13177 whole entry): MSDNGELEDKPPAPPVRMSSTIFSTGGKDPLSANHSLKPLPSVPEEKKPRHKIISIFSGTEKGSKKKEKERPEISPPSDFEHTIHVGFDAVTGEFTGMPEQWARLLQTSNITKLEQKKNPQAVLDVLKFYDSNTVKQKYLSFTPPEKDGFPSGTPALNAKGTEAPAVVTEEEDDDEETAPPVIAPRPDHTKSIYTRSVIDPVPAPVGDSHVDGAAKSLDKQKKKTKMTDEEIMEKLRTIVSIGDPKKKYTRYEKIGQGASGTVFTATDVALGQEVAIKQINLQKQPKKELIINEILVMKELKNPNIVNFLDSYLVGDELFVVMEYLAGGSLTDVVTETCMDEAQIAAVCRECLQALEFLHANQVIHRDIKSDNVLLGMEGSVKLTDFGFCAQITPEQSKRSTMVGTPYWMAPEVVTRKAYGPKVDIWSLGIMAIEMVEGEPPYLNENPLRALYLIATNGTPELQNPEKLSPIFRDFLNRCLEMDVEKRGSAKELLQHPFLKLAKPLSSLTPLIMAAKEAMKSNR
Summary of the method: as §1

[7] = biological target: 140 purified human kinases (Homo sapiens, UniProt P31749); conditions: PKBa
Chain of 140 purified human kinases (Homo sapiens, UniProt P31749) (P31749 whole entry): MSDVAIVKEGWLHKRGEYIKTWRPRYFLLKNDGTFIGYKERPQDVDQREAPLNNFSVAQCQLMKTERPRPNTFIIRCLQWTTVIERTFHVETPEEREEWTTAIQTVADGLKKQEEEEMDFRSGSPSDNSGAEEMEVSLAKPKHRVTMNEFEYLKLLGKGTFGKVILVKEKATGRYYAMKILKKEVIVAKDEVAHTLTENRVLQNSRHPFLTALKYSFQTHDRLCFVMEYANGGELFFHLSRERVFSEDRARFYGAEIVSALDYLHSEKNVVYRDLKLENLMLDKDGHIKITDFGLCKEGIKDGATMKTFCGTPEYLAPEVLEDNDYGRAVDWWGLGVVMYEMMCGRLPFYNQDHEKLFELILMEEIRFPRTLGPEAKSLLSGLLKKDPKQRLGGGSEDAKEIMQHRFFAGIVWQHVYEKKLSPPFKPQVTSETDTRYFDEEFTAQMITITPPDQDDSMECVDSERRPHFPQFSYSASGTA
Summary of the method: as §1

[8] = biological target: T3, 140 purified human kinases (Homo sapiens, UniProt P43403); conditions: for % Activity inhibition Mean / % Activity inhibition Run 1 / % Activity inhibition Run 2 / % Activity remaining Run 1 / % Activity remaining Run 2: 10 µM
T3 sequence (P43403 1-619): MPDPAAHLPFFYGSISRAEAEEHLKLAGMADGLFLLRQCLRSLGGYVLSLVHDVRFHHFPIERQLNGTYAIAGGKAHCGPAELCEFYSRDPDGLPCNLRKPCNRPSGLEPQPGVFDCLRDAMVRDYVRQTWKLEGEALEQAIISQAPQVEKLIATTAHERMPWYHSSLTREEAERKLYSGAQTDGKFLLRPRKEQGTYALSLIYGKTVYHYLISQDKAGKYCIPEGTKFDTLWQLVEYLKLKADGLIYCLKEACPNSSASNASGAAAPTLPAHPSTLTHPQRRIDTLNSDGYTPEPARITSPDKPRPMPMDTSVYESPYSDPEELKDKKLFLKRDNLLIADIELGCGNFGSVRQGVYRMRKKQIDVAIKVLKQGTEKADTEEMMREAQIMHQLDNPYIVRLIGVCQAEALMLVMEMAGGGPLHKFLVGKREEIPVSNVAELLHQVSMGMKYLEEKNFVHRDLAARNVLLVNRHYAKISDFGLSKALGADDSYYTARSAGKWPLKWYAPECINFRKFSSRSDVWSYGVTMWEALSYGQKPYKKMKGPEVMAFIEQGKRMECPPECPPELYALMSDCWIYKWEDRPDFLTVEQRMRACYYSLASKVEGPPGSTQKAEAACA
Summary of the method: as §1

In the case of `[Cu+2].[Cu+2].[Cu+2].c1ccc(-c2csc(NCCN(CCNc3nc(-c4ccccn4)cs3)CCNc3nc(-c4ccccn4)cs3)n2)nc1.c1ccc(-c2csc(NCCN(CCNc3nc(-c4ccccn4)cs3)CCNc3nc(-c4ccccn4)cs3)n2)nc1` [[L2Cu3]6+], the “% Inhibition Run 1” value [1] is reported as 26.1%, the “% Inhibition Run 2” value [1] is reported as 42.9% and the “% Inhibition, Mean” value [1] is reported as 35%. For the same molecule, the mean % activity [1] was 66%, the “% activity” value ([1]; Run 1) was 73.9% and the “% activity” value ([1]; Run 2) was 57.1%. The “% Activation, Mean value” [2] was 17%, the “% Inhibition Run 1” value [2] was -27.4% and the “% Inhibition Run 2” value [2] was -7.5%. The “% Inhibition, Mean” value [2] was -17%, the mean % activity [2] was 117% and the “% activity” value ([2]; Run 1) was 127.4%. The “% activity” value ([2]; Run 2) was 107.5%, the “% Activity Run 1” value ([2]; 10 µM) was 127.40% and the “% Activity Run 2” value ([2]; 10 µM) was 107.50%. For the same molecule, the “% Inhibition Run 1” value ([3]; TAK1) was 45.7%, the “% Inhibition Run 2” value ([3]; TAK1) was 51.7% and the “% Inhibition, Mean” value ([3]; TAK1) was 49%. For the same molecule, the mean % activity ([3]; TAK1) was 51%, the “% activity” value ([3]; TAK1, Run 1) was 54.3% and the “% activity” value ([3]; TAK1, Run 2) was 48.3%. The “% Inhibition Run 1” value ([4]; WNK1) was 12.1%, the “% Inhibition Run 2” value ([4]; WNK1) was -2.6% and the “% Inhibition, Mean” value ([4]; WNK1) was 4.75%. For the same molecule, the mean % activity ([4]; WNK1) was 95%, the “% activity” value ([4]; WNK1, Run 1) was 87.9% and the “% activity” value ([4]; WNK1, Run 2) was 102.6%. For the same molecule, the “% Inhibition Run 1” value ([5]; IRAK4) was 53.9%, the “% Inhibition Run 2” value ([5]; IRAK4) was 65.2% and the “% Inhibition, Mean” value ([5]; IRAK4) was 60%. For the same molecule, the mean % activity ([5]; IRAK4) was 40%, the “% activity” value ([5]; IRAK4, Run 1) was 46.1% and the “% activity” value ([5]; IRAK4, Run 2) was 34.8%. For the same molecule, the “% Inhibition Run 1” value ([6]; PAK2) was 44.4%, the “% Inhibition Run 2” value ([6]; PAK2) was 32.1% and the “% Inhibition, Mean” value ([6]; PAK2) was 38%. For the same molecule, the mean % activity ([6]; PAK2) was 62%, the “% activity” value ([6]; PAK2, Run 1) was 55.6% and the “% activity” value ([6]; PAK2, Run 2) was 67.9%. For the same molecule, the “% Inhibition Run 1” value [7] was 72.1%, the “% Inhibition Run 2” value [7] was 76% and the “% Inhibition, Mean” value [7] was 74%. The mean % activity [7] was 26%, the “% activity” value ([7]; Run 1) was 27.9% and the “% activity” value ([7]; Run 2) was 24%. For the same molecule, the “% Inhibition Run 1” value ([8]; ZAP70) was 94%, the “% Inhibition Run 2” value ([8]; ZAP70) was 89.2% and the “% Inhibition, Mean” value ([8]; ZAP70) was 92%. For the same molecule, the mean % activity ([8]; ZAP70) was 8%, the “% activity” value ([8]; ZAP70, Run 1) was 6% and the “% activity” value ([8]; ZAP70, Run 2) was 10.8%. The “% Activity inhibition Mean” value ([8]; ZAP70) was 91.6%, the “% Activity inhibition Run 1” value ([8]; ZAP70) was 94% and the “% Activity inhibition Run 2” value ([8]; ZAP70) was 89.2%. The “% Activity remaining Run 1” value ([8]; ZAP70) was 6.00% and the “% Activity remaining Run 2” value ([8]; ZAP70) was 10.80%.
In the case of `CC(=O)[O-].CC(=O)[O-].CC(=O)[O-].CC(=O)[O-].CC(=O)[O-].CC(=O)[O-].[Zn+2].[Zn+2].[Zn+2].c1ccc(-c2csc(NCCN(CCNc3nc(-c4ccccn4)cs3)CCNc3nc(-c4ccccn4)cs3)n2)nc1.c1ccc(-c2csc(NCCN(CCNc3nc(-c4ccccn4)cs3)CCNc3nc(-c4ccccn4)cs3)n2)nc1` [[L2Zn3]6+], the “% Inhibition, Mean” value [1] is reported as 6.6%, the “% Inhibition, Run 1 / Run 2” value [1] is reported as 2.4% and 11% and the mean % activity [1] is reported as 93%. The “% activity” value ([1]; duplicate runs) was 98% and 89%, the “% Inhibition, Mean” value [2] was 9% and the mean % activity [2] was 91%. The “% activity” value ([2]; duplicate runs) was 81% and 100%, the “% Inhibition, Mean” value ([3]; TAK1) was 35% and the “% Inhibition, Run 1 / Run 2” value ([3]; TAK1) was 34% and 36%. The mean % activity ([3]; TAK1) was 65%, the “% activity” value ([3]; TAK1, duplicate runs) was 66% and 64% and the “% Inhibition, Mean” value ([4]; WNK1) was 2.3%. For the same molecule, the mean % activity ([4]; WNK1) was 98%, the “% activity” value ([4]; WNK1, duplicate runs) was 90% and 106% and the “% Inhibition, Mean” value ([5]; IRAK4) was 10%. The “% Inhibition, Run 1 / Run 2” value ([5]; IRAK4) was 13% and 7%, the mean % activity ([5]; IRAK4) was 90% and the “% activity” value ([5]; IRAK4, duplicate runs) was 87% and 93%. The “% Inhibition, Mean” value ([6]; PAK2) was 22%, the “% Inhibition, Run 1 / Run 2” value ([6]; PAK2) was 23% and 21% and the mean % activity ([6]; PAK2) was 78%. The “% activity” value ([6]; PAK2, duplicate runs) was 77% and 79%, the “% Inhibition, Mean” value [7] was 17% and the mean % activity [7] was 83%. For the same molecule, the “% activity” value ([7]; duplicate runs) was 68% and 99%, the “% Inhibition, Mean” value ([8]; ZAP70) was 89% and the “% Inhibition, Run 1 / Run 2” value ([8]; ZAP70) was 91% and 88%. For the same molecule, the mean % activity ([8]; ZAP70) was 11%, the “% Activity inhibition Mean” value ([8]; ZAP70) was 89.0% and the “% Activity inhibition Run 1” value ([8]; ZAP70) was 90%. For the same molecule, the “% Activity inhibition Run 2” value ([8]; ZAP70) was 88%, the “% Activity remaining Run 1” value ([8]; ZAP70) was 10% and the “% Activity remaining Run 2” value ([8]; ZAP70) was 12%. The “% activity” value ([8]; ZAP70, duplicate runs) was 9.5% and 12%.
